Patent EP3154958B1, “PHOSPHATIDYLINOSITOL 3-KINASE INHIBITORS” (Gilead Sciences, Inc., priority 2014, dated 2015)

Experiments:
Format in all cases: biochemical
PI3Kβ = target: T1, PI3Kβ (Homo sapiens, UniProt P42338); experiment: TR-FRET enzymatic activity assay, PI3Kβ; conditions: recombinant heterodimeric PI3Kβ 25-50 pM, 2× Km ATP, 30 minutes at 25°C
T1 construct: made in house
Outline: (§1)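 Enzymatic activity against the PI3K isoforms was measured using a time-resolved fluorescence resonance energy transfer (TR-FRET) assay.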

PI3Kγ = target: T2, PI3Kγ (Homo sapiens, UniProt P48736); experiment: TR-FRET enzymatic activity assay, PI3Kγ; conditions: recombinant heterodimeric PI3Kγ 2 nM, 2× Km ATP, 30 minutes at 25°C
T2 construct: made in house
Outline: as §1

PI3Kδ = target: T3, PI3Kδ (Homo sapiens, UniProt O00329); experiment: TR-FRET enzymatic activity assay, PI3Kδ; conditions: recombinant heterodimeric PI3Kδ 25-50 pM, 2× Km ATP, 30 minutes at 25°C
T3 construct: made in house
Outline: as §1

T1 sequence (P42338 whole entry): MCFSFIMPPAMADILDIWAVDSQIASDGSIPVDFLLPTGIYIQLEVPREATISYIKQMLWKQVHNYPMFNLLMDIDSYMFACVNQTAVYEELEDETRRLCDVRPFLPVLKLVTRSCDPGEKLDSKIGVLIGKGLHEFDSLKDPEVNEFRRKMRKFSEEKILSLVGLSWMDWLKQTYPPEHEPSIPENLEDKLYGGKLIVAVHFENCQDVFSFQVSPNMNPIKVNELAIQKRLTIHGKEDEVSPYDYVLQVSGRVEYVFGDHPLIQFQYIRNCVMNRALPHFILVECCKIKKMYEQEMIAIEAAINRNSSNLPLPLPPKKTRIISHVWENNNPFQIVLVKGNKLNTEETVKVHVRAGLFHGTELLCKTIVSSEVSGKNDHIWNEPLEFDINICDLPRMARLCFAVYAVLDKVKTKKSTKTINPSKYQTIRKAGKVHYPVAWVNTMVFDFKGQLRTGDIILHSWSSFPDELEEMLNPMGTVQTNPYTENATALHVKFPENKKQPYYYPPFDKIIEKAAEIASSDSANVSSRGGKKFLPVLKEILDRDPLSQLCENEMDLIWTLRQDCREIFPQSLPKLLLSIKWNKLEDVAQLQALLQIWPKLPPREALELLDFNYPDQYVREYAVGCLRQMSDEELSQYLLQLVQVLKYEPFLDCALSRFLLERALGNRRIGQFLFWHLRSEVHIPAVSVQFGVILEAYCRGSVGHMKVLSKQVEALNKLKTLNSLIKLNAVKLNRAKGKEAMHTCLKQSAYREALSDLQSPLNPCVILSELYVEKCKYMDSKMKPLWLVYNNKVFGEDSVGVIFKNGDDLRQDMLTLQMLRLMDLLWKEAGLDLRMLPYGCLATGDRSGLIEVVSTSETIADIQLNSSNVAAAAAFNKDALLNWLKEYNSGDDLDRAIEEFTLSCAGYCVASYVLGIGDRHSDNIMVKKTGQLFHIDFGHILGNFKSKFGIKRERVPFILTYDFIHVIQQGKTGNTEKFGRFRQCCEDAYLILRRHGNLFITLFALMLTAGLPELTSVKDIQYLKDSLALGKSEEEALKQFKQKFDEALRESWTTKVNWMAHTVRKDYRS
T1 sequence (P27986 whole entry partner): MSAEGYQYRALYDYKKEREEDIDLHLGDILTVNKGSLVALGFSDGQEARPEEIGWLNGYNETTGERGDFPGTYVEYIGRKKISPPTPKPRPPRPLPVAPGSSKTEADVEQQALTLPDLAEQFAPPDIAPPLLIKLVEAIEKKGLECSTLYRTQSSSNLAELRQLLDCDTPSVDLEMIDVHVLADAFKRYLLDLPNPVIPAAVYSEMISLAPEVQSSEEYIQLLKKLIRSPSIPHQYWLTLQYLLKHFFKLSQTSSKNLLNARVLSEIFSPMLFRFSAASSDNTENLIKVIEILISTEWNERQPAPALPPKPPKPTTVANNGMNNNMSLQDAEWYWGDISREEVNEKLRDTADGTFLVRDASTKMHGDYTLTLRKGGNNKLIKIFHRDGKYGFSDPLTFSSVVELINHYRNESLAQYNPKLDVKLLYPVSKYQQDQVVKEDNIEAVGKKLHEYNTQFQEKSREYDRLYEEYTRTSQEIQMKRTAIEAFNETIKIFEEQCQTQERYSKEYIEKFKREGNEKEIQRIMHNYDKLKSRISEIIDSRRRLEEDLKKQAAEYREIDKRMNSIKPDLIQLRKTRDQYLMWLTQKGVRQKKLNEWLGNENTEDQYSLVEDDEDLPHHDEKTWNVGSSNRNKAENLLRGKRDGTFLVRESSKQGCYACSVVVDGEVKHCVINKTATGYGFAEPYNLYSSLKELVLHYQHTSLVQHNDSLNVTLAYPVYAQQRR
T3 sequence (O00329 whole entry): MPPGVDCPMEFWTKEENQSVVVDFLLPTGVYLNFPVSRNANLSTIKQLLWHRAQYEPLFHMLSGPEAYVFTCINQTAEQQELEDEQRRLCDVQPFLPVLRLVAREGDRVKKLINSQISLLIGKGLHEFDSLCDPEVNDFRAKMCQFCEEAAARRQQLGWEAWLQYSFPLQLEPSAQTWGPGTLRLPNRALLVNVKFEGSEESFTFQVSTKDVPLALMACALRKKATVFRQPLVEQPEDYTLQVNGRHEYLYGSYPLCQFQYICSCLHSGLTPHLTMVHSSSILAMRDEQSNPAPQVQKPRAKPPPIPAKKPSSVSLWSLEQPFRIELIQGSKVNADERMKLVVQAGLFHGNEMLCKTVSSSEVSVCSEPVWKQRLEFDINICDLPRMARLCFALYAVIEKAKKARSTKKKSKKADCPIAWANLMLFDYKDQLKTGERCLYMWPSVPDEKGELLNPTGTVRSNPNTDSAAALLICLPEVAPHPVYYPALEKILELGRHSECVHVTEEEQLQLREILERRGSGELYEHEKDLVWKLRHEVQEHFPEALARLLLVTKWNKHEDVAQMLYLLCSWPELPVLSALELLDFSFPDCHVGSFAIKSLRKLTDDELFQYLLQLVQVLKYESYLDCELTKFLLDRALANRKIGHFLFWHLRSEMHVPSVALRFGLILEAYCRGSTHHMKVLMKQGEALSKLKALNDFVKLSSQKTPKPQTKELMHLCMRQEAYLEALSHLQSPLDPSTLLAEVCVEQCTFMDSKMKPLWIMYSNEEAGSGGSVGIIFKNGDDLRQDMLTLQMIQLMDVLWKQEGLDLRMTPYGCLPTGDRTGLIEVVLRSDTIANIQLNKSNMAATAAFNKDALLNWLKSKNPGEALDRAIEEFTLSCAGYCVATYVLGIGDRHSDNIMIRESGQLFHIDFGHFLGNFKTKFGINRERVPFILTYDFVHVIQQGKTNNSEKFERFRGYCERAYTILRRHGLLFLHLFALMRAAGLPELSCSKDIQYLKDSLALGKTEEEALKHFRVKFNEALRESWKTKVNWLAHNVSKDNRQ
T3 sequence (P27986 whole entry partner): as the sequence (P27986 whole entry partner) above
T2 sequence (P48736 whole entry): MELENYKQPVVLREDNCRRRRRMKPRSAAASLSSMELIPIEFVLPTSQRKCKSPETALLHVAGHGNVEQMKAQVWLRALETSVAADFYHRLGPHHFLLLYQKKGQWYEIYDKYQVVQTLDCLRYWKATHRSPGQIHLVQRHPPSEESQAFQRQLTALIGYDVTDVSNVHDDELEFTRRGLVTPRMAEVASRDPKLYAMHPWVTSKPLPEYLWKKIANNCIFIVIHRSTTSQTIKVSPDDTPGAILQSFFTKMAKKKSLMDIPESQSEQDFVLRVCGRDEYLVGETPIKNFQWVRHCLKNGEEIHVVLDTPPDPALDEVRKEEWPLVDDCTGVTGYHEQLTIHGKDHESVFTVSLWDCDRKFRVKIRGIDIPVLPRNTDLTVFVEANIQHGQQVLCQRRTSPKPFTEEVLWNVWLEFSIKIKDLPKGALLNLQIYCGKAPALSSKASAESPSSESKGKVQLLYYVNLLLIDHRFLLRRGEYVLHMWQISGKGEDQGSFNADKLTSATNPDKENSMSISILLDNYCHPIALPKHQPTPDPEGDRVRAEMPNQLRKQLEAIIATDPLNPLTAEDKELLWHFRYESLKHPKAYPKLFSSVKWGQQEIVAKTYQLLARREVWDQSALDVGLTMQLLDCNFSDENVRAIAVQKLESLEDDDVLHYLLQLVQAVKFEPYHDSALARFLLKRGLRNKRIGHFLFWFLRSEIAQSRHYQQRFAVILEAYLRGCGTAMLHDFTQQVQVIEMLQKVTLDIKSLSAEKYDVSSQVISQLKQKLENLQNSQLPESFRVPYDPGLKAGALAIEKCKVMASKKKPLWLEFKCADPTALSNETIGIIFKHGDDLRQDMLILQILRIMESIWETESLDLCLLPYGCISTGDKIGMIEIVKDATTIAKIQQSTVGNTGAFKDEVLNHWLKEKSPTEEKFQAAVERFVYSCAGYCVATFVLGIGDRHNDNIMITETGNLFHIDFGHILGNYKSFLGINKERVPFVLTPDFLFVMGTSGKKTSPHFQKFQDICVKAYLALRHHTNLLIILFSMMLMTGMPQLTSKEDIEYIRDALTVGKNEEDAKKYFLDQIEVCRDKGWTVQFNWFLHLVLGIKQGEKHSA
T2 sequence (Q8WYR1 whole entry partner): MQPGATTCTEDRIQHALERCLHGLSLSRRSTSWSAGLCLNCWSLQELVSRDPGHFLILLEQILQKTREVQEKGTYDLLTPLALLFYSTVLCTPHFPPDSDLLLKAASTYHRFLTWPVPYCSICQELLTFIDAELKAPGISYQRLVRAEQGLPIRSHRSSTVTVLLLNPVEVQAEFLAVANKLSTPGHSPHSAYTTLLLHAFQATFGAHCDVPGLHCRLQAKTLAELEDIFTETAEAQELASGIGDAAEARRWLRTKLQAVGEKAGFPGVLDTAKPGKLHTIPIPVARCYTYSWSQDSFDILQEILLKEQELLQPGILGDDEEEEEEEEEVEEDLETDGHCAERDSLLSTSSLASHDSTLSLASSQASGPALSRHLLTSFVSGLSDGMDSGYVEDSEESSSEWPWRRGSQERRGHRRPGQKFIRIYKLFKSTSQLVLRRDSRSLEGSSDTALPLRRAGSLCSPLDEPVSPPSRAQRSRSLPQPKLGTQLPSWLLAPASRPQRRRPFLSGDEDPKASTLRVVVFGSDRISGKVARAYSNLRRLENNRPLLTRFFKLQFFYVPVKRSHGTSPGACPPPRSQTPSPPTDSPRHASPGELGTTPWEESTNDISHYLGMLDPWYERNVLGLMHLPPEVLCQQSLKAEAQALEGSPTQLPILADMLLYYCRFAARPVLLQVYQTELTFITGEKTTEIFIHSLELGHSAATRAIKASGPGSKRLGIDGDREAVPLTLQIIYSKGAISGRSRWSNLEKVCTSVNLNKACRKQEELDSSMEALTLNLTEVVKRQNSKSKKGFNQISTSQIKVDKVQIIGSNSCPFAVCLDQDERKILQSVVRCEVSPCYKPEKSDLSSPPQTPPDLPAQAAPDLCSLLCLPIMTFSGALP

| Compound | IC50 (PI3Kβ) | IC50 (PI3Kγ) | IC50 (PI3Kδ) |
| --- | --- | --- | --- |
| C[C@H](Nc1ncnc(N)c1C#N)c1nc2cccc(Cl)c2c(=O)n1C1CCN(CC(F)F)CC1 [Compound 105, (S)-4-amino-6-((1-(5-chloro-3-(1-(2,2-difluoroethyl)piperidin-4-yl)-4-oxo-3,4-dihydroquinazolin-2-yl)ethyl)amino)pyrimidine-5-carbonitrile] | 1900 nM | > 10000 nM | 9 nM |
| Cc1nc(N)nc(N[C@@H](C)c2nc3cccc(Cl)c3c(=O)n2C2CCN(CC(F)(F)F)CC2)c1C#N [Compound 106, (S)-2-amino-4-((1-(5-chloro-4-oxo-3-(1-(2,2,2-trifluoroethyl)piperidin-4-yl)-3,4-dihydroquinazolin-2-yl)ethyl)amino)-6-methylpyrimidine-5-carbonitrile] | 260 nM | 710 nM | 11 nM |
| C[C@H](Nc1nc(N)nc(N)c1C#N)c1nc2cccc(Cl)c2c(=O)n1N1CCN(CC(F)(F)F)CC1 [Compound 107, (S)-2,4-diamino-6-((1-(5-chloro-4-oxo-3-(4-(2,2,2-trifluoroethyl)piperazin-1-yl)-3,4-dihydroquinazolin-2-yl)ethyl)amino)pyrimidine-5-carbonitrile] | 520 nM | 630 nM | 16 nM |
| C[C@H](Nc1nc(N)nc(N)c1Cl)c1nc2cccc(Cl)c2c(=O)n1N1CCN(CC(F)(F)F)CC1 [Compound 108, (S)-5-chloro-2-(1-((2,6-diamino-5-chloropyrimidin-4-yl)amino)ethyl)-3-(4-(2,2,2-trifluoroethyl)piperazin-1-yl)quinazolin-4(3H)-one] | 6100 nM | > 10000 nM | 170 nM |
| Cc1nc(N)nc(N[C@@H](C)c2nc3cccc(Cl)c3c(=O)n2N2CCN(CC(F)(F)F)CC2)c1C#N [Compound 109, (S)-2-amino-4-((1-(5-chloro-4-oxo-3-(4-(2,2,2-trifluoroethyl)piperazin-1-yl)-3,4-dihydroquinazolin-2-yl)ethyl)amino)-6-methylpyrimidine-5-carbonitrile] | 290 nM | 660 nM | 14 nM |
| C[C@H](Nc1nc(N)nc(Cl)c1C#N)c1nc2cccc(Cl)c2c(=O)n1N1CCN(CC(F)(F)F)CC1 [Compound 110, (S)-2-amino-4-chloro-6-((1-(5-chloro-4-oxo-3-(4-(2,2,2-trifluoroethyl)piperazin-1-yl)-3,4-dihydroquinazolin-2-yl)ethyl)amino)pyrimidine-5-carbonitrile] | 1400 nM | 2800 nM | 41 nM |
| C[C@H](Nc1nc(N)nc(N)c1C#N)c1nc2cccc(Cl)c2c(=O)n1N1CCN(CC(F)F)CC1 [Compound 111, (S)-2,4-diamino-6-((1-(5-chloro-3-(4-(2,2-difluoroethyl)piperazin-1-yl)-4-oxo-3,4-dihydroquinazolin-2-yl)ethyl)amino)pyrimidine-5-carbonitrile] | 530 nM | 730 nM | 24 nM |
| C[C@H](Nc1nc(N)nc(N)c1Cl)c1nc2cccc(Cl)c2c(=O)n1N1CCN(CC(F)F)CC1 [Compound 112, (S)-5-chloro-2-(1-((2,6-diamino-5-chloropyrimidin-4-yl)amino)ethyl)-3-(4-(2,2-difluoroethyl)piperazin-1-yl)quinazolin-4(3H)-one] | 7800 nM | > 10000 nM | 280 nM |
| C[C@H](Nc1nc(N)nc(Cl)c1C#N)c1nc2cccc(Cl)c2c(=O)n1N1CCN(CC(F)F)CC1 [Compound 113, (S)-2-amino-4-chloro-6-((1-(5-chloro-3-(4-(2,2-difluoroethyl)piperazin-1-yl)-4-oxo-3,4-dihydroquinazolin-2-yl)ethyl)amino)pyrimidine-5-carbonitrile] | 600 nM | 1300 nM | 42 nM |
| Cc1nc(N)nc(N[C@@H](C)c2nc3cccc(Cl)c3c(=O)n2N2CCN(CC(F)F)CC2)c1C#N [Compound 114, (S)-2-amino-4-((1-(5-chloro-3-(4-(2,2-difluoroethyl)piperazin-1-yl)-4-oxo-3,4-dihydroquinazolin-2-yl)ethyl)amino)-6-methylpyrimidine-5-carbonitrile] | 300 nM | 560 nM | 26 nM |
| C[C@H](Nc1ncnc2scnc12)c1nc2cccc(Cl)c2c(=O)n1N1CCN(CC(F)F)CC1 [Compound 115, (S)-5-chloro-3-(4-(2,2-difluoroethyl)piperazin-1-yl)-2-(1-(thiazolo[5,4-d]pyrimidin-7-ylamino)ethyl)quinazolin-4(3H)-one] | 1800 nM | 5300 nM | 37 nM |
| C[C@H](Nc1nc(N)nc(N)c1C#N)c1nc2c(F)ccc(Cl)c2c(=O)n1N1CCN(Cc2ccccc2)CC1 [Compound 116, (S)-2,4-diamino-6-((1-(3-(4-benzylpiperazin-1-yl)-5-chloro-8-fluoro-4-oxo-3,4-dihydroquinazolin-2-yl)ethyl)amino)pyrimidine-5-carbonitrile] | 13 nM | 470 nM | 15 nM |
| C[C@H](Nc1nc(N)nc(N)c1Cl)c1nc2c(F)ccc(Cl)c2c(=O)n1N1CCN(Cc2ccccc2)CC1 [Compound 117, (S)-3-(4-benzylpiperazin-1-yl)-5-chloro-2-(1-((2,6-diamino-5-chloropyrimidin-4-yl)amino)ethyl)-8-fluoroquinazolin-4(3H)-one] | 570 nM | > 10000 nM | 220 nM |
| Cc1nc(N)nc(N[C@@H](C)c2nc3c(F)ccc(Cl)c3c(=O)n2N2CCN(Cc3ccccc3)CC2)c1C#N [Compound 118, (S)-2-amino-4-((1-(3-(4-benzylpiperazin-1-yl)-5-chloro-8-fluoro-4-oxo-3,4-dihydroquinazolin-2-yl)ethyl)amino)-6-methylpyrimidine-5-carbonitrile] | 14 nM | 650 nM | 17 nM |
| C[C@H](Nc1nc(N)nc(N)c1C#N)c1nc2cccc(Cl)c2c(=O)n1C1CCN(CC(F)(F)F)C1 (stereo partly drawn) [Compound 119, 2,4-diamino-6-(((1S)-1-(5-chloro-4-oxo-3-(1-(2,2,2-trifluoroethyl)pyrrolidin-3-yl)-3,4-dihydroquinazolin-2-yl)ethyl)amino)pyrimidine-5-carbonitrile] | 360 nM | 2900 nM | 14 nM |
| C[C@H](Nc1ncnc2[nH]cnc12)c1nc2cccc(Cl)c2c(=O)n1C1CCN(C)CC1 [Compound 120, (S)-2-(1-((9H-purin-6-yl)amino)ethyl)-5-chloro-3-(1-methylpiperidin-4-yl)quinazolin-4(3H)-one] | 1200 nM | > 10000 nM | 14 nM |
| N#Cc1c(N)nc(N)nc1N[C@H](c1nc2cccc(Cl)c2c(=O)n1N1CCOCC1)C1CC1 [Compound 121, (S)-2,4-diamino-6-(((5-chloro-3-morpholino-4-oxo-3,4-dihydroquinazolin-2-yl)(cyclopropyl)methyl)amino)pyrimidine-5-carbonitrile] | 134 nM | 190 nM | 2 nM |
| Nc1nc(N)c(Cl)c(N[C@H](c2nc3cccc(Cl)c3c(=O)n2N2CCOCC2)C2CC2)n1 [Compound 122, (S)-5-chloro-2-(cyclopropyl((2,6-diamino-5-chloropyrimidin-4-yl)amino)methyl)-3-morpholinoquinazolin-4(3H)-one] | 1800 nM | 2200 nM | 19 nM |
| C[C@H](Nc1nc(N)nc(N)c1C#N)c1nc2cccc(Cl)c2c(=O)n1N1CCN(C)CC1 [Compound 125, (S)-2,4-diamino-6-((1-(5-chloro-3-(4-methylpiperazin-1-yl)-4-oxo-3,4-dihydroquinazolin-2-yl)ethyl)amino)pyrimidine-5-carbonitrile] | 5 nM | 350 nM | 6 nM |
| C[C@H](Nc1nc(N)nc(N)c1C#N)c1nc2c(Cl)cc(F)cc2c(=O)n1N1CCNCC1 [Compound 126, (S)-2,4-diamino-6-((1-(8-chloro-6-fluoro-4-oxo-3-(piperazin-1-yl)-3,4-dihydroquinazolin-2-yl)ethyl)amino)pyrimidine-5-carbonitrile] | 5 nM | 4900 nM | 4 nM |
| N#Cc1c(N)nc(N)nc1N[C@H](c1nc2c(F)ccc(F)c2c(=O)n1N1CCNCC1)C1CC1 [Compound 127, (S)-2,4-diamino-6-((cyclopropyl(5,8-difluoro-4-oxo-3-(piperazin-1-yl)-3,4-dihydroquinazolin-2-yl)methyl)amino)pyrimidine-5-carbonitrile] | 28 nM | > 10000 nM | 13 nM |
| C[C@H](Nc1nc(N)nc(Cl)c1C#N)c1nc2cccc(Cl)c2c(=O)n1C1CCNCC1 [Compound 128, (S)-2-Amino-4-chloro-6-((1-(5-chloro-4-oxo-3-(piperidin-4-yl)-3,4-dihydroquinazolin-2-yl)ethyl)amino)pyrimidine-5-carbonitrile] | 10 nM | > 10000 nM | 14 nM |
| C[C@H](Nc1nc(N)nc(N)c1C#N)c1nc2cccc(Cl)c2c(=O)n1N1CCC(N)CC1 [Compound 129, (S)-2,4-diamino-6-((1-(3-(4-aminopiperidin-1-yl)-5-chloro-4-oxo-3,4-dihydroquinazolin-2-yl)ethyl)amino)pyrimidine-5-carbonitrile] | 120 nM | 5000 nM | 4 nM |
| C[C@H](Nc1ncnc(N)c1C#N)c1nc2cccc(Cl)c2c(=O)n1N1CCC(N)C1 (stereo partly drawn) [Compound 130, 4-amino-6-(((1S)-1-(3-(3-aminopyrrolidin-1-yl)-5-chloro-4-oxo-3,4-dihydroquinazolin-2-yl)ethyl)amino)pyrimidine-5-carbonitrile] | 62 nM | > 10000 nM | 1 nM |
| C[C@H](Nc1ncnc(N)c1C#N)c1nc2cccc(Cl)c2c(=O)n1N1CCC(N)CC1 [Compound 131, (S)-4-amino-6-((1-(3-(4-aminopiperidin-1-yl)-5-chloro-4-oxo-3,4-dihydroquinazolin-2-yl)ethyl)amino)pyrimidine-5-carbonitrile] | 450 nM | > 10000 nM | 6 nM |
